Structures can show the parent of a compound that is named as a salt.
What was measured:
[1] = test system: ADP-induced human platelet aggregation; assay: Mouse ex vivo studies: plasma of orally dosed mice tested on ADP-induced human platelet aggregation; conditions: 1 mg/kg, p.o; for Last time point * (time in hours): time point after which the activity fell below 30%; for Activity (%) at last time point / Activity (%) at peak: ex vivo in mice
Experimental: Mouse ex vivo Studies: (Weller, T., Alig, L., et al J. Med. Chem., 1996, 39, 3139-3147)
Mice of either sex weighing between 25-35 g were orally fed the test compound. Blood was collected, from the abdominal aorta into ACD solution, at different time-points ranging from 15 min to 6 h. The blood samples were centrifuged at 2000×g for 10 min to get PFP. This plasma was separated and used as test sample to study its effect on ADP-induced human platelet aggregation (Table 3).

[2] = test system: ADP-induced guinea pig platelet aggregation; assay: Guinea pig ex vivo studies: ADP-induced guinea pig platelet aggregation after oral dosing; conditions: ex vivo in Guinea pigs, 3.1 mg/kg, p.o; for Last time point * (time in hours): time point after which the activity fell below 30%
Experimental: Guinea Pig Ex vivo Studies:
Guinea pigs of either sex weighing between 500-800 g were orally fed the test compound. Blood was collected, from the carotid artery into ACD solution, at different time-points ranging from 1 to 24 h. PRP was separated and the platelet count adjusted to 3×10^8 platelets/ml using PFP. The effect of the test compound on ADP-induced guinea pig platelet aggregation was studied (Table 4).

[3] = test system: ADP-induced human platelet aggregation; assay: Inhibition of platelet aggregation in human PRP (ADP-induced); type: cell-based; conditions: 0.05 h, 3 min at 37° C., ADP 5-15 μM final concentration
Experimental: Human blood (150 ml) was collected from the ante-cubital vein of normal healthy volunteers (who were not on any medication for the past two weeks), into a siliconized glass bottle containing 25 ml of acid-citrate-dextrose (ACD) solution and 10 units of hirudin. The blood was immediately centrifuged at 200×g for 20 min at room temperature. Platelet-rich plasma (PRP) was separated and the platelet count read using a Beckman Coulter A^cT diff Counter. The tubes were centrifuged again at 2000×g for 10 min at room temperature, to get platelet-free plasma (PFP). The platelet count of PRP was adjusted to 3×10^8 platelets/ml by appropriate dilution with PFP. All in vitro experiments were conducted using PRP with adjusted number of platelets.
Inhibition of Platelet Aggregation in Human PRP (Born, G. V. R.; Cross, M. J., J. Physiol, 1963, 168, 175)
PRP was incubated with different concentrations of the test compound for 3 min at 37° C. Platelet aggregation was then induced by the addition of ADP (5-15 μM final concentration). Percent inhibition of platelet aggregation was then calculated by comparing test aggregation values with control values (Table 1).

## CCOC(=O)COc1ccc(C(CN2Cc3cc(C(=N)NO)ccc3C2=O)=NO)cc1OCC(=O)OCC [Example 23, (2-Ethoxycarbonylmethoxy-4-{2-[5-(N-hydroxycarbamimidoyl)-1-oxo-1,3-dihydro-isoindol-2-yl]-1-hydroxyimino-ethyl}-phenoxy)-acetic acid ethyl ester]
[1]
  Peak activity (time in hours): 1 h
  Last time point * (time in hours): 4 h
  Activity (%) at last time point: 35%
  Activity (%) at peak: 100%
[2]
  Activity (%) at last time point: 48%
  Activity (%) at peak: 100%
  Peak activity (time in hours): 7 h
  Last time point * (time in hours): 13 h
other
  melting point: 181 to 182 °C

## CCOC(=O)COc1ccc(C(=O)CN2Cc3cc(C(=N)NO)ccc3C2=O)c(O)c1 [Example 42, (3-Hydroxy-4-{2-[5-(N-hydroxycarbamimidoyl)-1-oxo-1,3-dihydro-isoindol-2-yl]-acetyl}-phenoxy)-acetic acid ethyl ester]
[1]
  Peak activity (time in hours): 0.75 h
  Last time point * (time in hours): 6 h
  Activity (%) at last time point: 62%
  Activity (%) at peak: 100%
[2]
  Activity (%) at last time point: 78%
  Activity (%) at peak: 100%
  Peak activity (time in hours): 7 h
  Last time point * (time in hours): 15 h
other
  melting point: 197 to 198 °C

## CC(C)COC(=O)COc1ccc(C(=O)CN2Cc3cc(C(=N)N)ccc3C2=O)cc1OCC(=O)OCC(C)C [Example 24, (4-{2-[5-Carbamimidoyl-1-oxo-1,3-dihydro-isoindol-2-yl]-acetyl}-2-isobutoxycarbonylmethoxy-phenoxy)acetic acid isobutyl ester]
[3]
  IC50: 6 nM

## CCOC(=O)COc1ccc(C(=O)CN2Cc3cc(C(=N)N)ccc3C2=O)cc1 [Example 3, (4-{2-[5-Carbamimidoyl-1-oxo-1,3-dihydro-isoindol-2-yl]-acetyl}-phenoxy)-acetic acid ethyl ester]
[3]
  IC50: 93 nM
other
  melting point: 185 to 187 °C

## CCOC(=O)COc1ccc(C(=O)CN2Cc3cc(C(=N)NO)ccc3C2=O)c(O)c1SCC [Example 49, (2-Ethylsulfanyl-3-hydroxy-4-{2-[5-(N-hydroxycarbamimidoyl)-1-oxo-1,3-dihydro-isoindol-2-yl]-acetyl}-phenoxy)-acetic acid ethyl ester]
[1]
  Peak activity (time in hours): 0.75 h
  Last time point * (time in hours): 3 h
  Activity (%) at last time point: 38%
  Activity (%) at peak: 65%
other
  melting point: 182 to 183 °C

## CCOC(=O)COc1ccc(C(=O)CN2Cc3cc(C(=N)N)ccc3C2=O)cc1OCC(=O)OCC [Example 20, (4-{2-[5-Carbamimidoyl-1-oxo-1,3-dihydro-isoindol-2-yl]-acetyl}-2-ethoxycarbonylmethoxy-phenoxy)-acetic acid ethyl ester]
[3]
  IC50: 50 nM

## CCOC(=O)COc1ccc(C(=O)CN2Cc3cc(C(=N)NO)ccc3C2=O)c(O)c1CC [Example 57, (2-Ethyl-3-hydroxy-4-{2-[5-(N-hydroxycarbamimidoyl)-1-oxo-1,3-dihydro-isoindol-2-yl]-acetyl}-phenoxy)-acetic acid ethyl ester]
other
  melting point: 196 to 197 °C

## CCOC(=O)COc1ccc(C(=O)CN2Cc3cc(C(=N)N)ccc3C2=O)cc1Cl (as salt: salt) [Example 30, (4-{2-[5-Carbamimidoyl-1-oxo-1,3-dihydro-isoindol-2-yl]-acetyl}-2-chloro-phenoxy)-acetic acid ethyl ester]
other
  melting point: 172 to 173 °C

## CCOC(=O)CN1CCN(C(=O)CN2Cc3cc(C(=N)N)ccc3C2=O)CC1 (as salt: salt) [Example 66, (4-{2-[5-Carbamimidoyl-1-oxo-1,3-dihydro-isoindol-2-yl]-acetyl}-piperazine-1-yl)-acetic acid ethyl ester]
other
  melting point: 211 to 212 °C

## CCOC(=O)COc1ccc(C(=O)CN2Cc3cc(C(=N)N)ccc3C2=O)c(OCC)c1 [Example 76, (4-{2-[5-carbamimidoyl-1-oxo-1,3-dihydro-isoindol-2-yl]-acetyl}-3-ethoxy-phenoxy)-acetic acid ethyl ester]
other
  melting point: 202 to 203 °C

## CCOC(=O)COc1cc(O)c(C(=O)CN2Cc3cc(C(=N)NO)ccc3C2=O)cc1C(C)C [Example 51, (5-Hydroxy-4-{2-[5-(N-hydroxycarbamimidoyl)-1-oxo-1,3-dihydro-isoindol-2-yl]-acetyl}-2-isopropyl-phenoxy)-acetic acid ethyl ester]
other
  melting point: 207 to 209 °C

## N=C(N)c1ccc2c(c1)CN(CC(=O)c1ccc(OCC(=O)O)cc1O)C2=O (as salt: trifluoroacetate) [Example 44, (4-{2-[5-Carbamimidoyl-1-oxo-1,3-dihydro-isoindol-2-yl]-acetyl}-3-hydroxy-phenoxy)-acetic acid]
other
  melting point: 262 °C (dec.)

## COC(=O)NC(=N)c1ccc2c(c1)CN(CC(=O)c1ccc(OCC(=O)OCC(C)C)cc1)C2=O [Example 11, (4-{2-[5-(Imino-methoxycarbonylamino-methyl)-1-oxo-1,3-dihydro-isoindol-2-yl]-acetyl}-phenoxy)-acetic acid isobutyl ester]
other
  melting point: 162 to 163 °C

## CCOC(=O)COc1ccc(C(=O)CN2Cc3cc(C(=N)NO)ccc3C2=O)cc1S(=O)(=O)CC [Example 36, (2-Ethanesulfonyl-4-{2-[5-(N-hydroxycarbamimidoyl)-1-oxo-1,3-dihydro-isoindol-2-yl]-acetyl}-phenoxy)-acetic acid ethyl ester]
other
  melting point: 196 to 197 °C

## CCOC(=O)COc1cc(O)c(C(=O)CN2Cc3cc(C(=N)NO)ccc3C2=O)c(O)c1 [Example 63, (3,5-Dihydroxy-4-{2-[5-(N-hydroxycarbamimidoyl)-1-oxo-1,3-dihydro-isoindol-2-yl]-acetyl}-phenoxy)-acetic acid ethyl ester]
other
  melting point: 229 to 230 °C

## CCOC(=O)COc1ccc(C(=O)CN2Cc3cc(C(=N)N)ccc3C2=O)cc1S(=O)(=O)CC (as salt: salt) (hydrate or solvate) [Example 35, (4-{2-[5-Carbamimidoyl-1-oxo-1,3-dihydro-isoindol-2-yl]-acetyl}-2-ethanesulfonyl-phenoxy)-acetic acid ethyl ester]
other
  melting point: 174 to 175 °C

## CCOC(=O)COc1cc(O)c(C(=O)CN2Cc3cc(C(=N)NO)ccc3C2=O)cc1Cl (hydrate or solvate) [Example 53, (2-Chloro-5-hydroxy-4-{2-[5-(N-hydroxycarbamimidoyl)-1-oxo-1,3-dihydro-isoindol-2-yl]-acetyl}-phenoxy)-acetic acid ethyl ester]
other
  melting point: 227 to 228 °C

## N=C(N)c1ccc2c(c1)CN(CC(=O)N1CCC(OCC(=O)O)CC1)C2=O (as salt: hydrochloride) (hydrate or solvate) [Example 73, (1-{2-[5-Carbamimidoyl-1-oxo-1,3-dihydro-isoindol-2-yl]-acetyl}-piperidin-4-yloxy)-acetic acid]
other
  melting point: 135 to 136 °C
